Measured values published in patent US20250177412A1, “SMALL-MOLECULE INHIBITORS TARGETING THE BOB1/OCT1 INTERFACE” (NANTES UNIVERSITE, priority 2022, published 2025).
Where two headings read alike, the source gives them in different places.

What was measured:
[1] = system: CD4+CD25- effector T cells; assay: T cell suppression assay (B cell / CD4+CD25- T cell co-culture); format: cell-based, human; settings: for inhibition at 10 µM: Homo sapiens, T-cell, read-out: T-cell proliferation (percentage inhibition)
Protocol: B cells were kept unstimulated (B resting) or stimulated (B expanded) for 24 hours with the expansion mixture containing F(ab′)2 anti-BCR, CpG ODN, CD40L, IL-2, and IL-21. FIG. 6A-B show the expression level of granzyme B measured as frequency (FIG. 6A) and by the MFI (FIG. 6B) in DMSO-treated (compound 005-) and 10 μM compound 005-treated resting (open circles) and expanded for […] (closed circles) B cells. FIG. 6C-G show resting and expanded B cells washed with fresh medium and co-cultured with autologous CPD-labelled CD4^+CD25^− effector T cells for 3 days in the presence of anti-CD3/CD28 Dynabeads. compound 005 was added to the B cells only during 24-hours of activation with the expansion mixture (FIG. 6C-D), followed by daily supplementation during three days of co-culture (FIG. 6E-G). Representative offset histogram overlays showing median fluorescence intensity of staining of gated live […] with cell proliferation dye (CPD) (FIGS. 6C, 6E and 6F). The percentage of proliferating cells is indicated for one representative donor. FIGS. 6D and 6G show corresponding summarized data for the percentage inhibition of proliferation of anti-CD3/CD28-activated CD4^+CD25^− T cells co-cultured with resting (open circles) or expanded (closed circles) B cells without BOB1 inhibitor (DMSO-treated control) or in the presence of 10 μM compound 005. Bars indicate the mean±SD. ** P<0.01, *** P<0.001. FIG. 6H-J Expression values of POU2AF1 (FIG. 6H), POU2F1 (FIG. 6I), and POU2F2 (FIG. 6J) genes encoding BOB1, OCT1 and OCT2, respectively, extracted from scRNA-seq data on B cells stimulated toward regulatory (expanded) or unstimulated (rested). Data are represented with bar plots as mean+SD of non-zero values or with dot plots represented as a percentage of positive cells (FIG. 6H-J) or the average expression in each condition (FIG. 6K). P-values are adjusted to the number of expressed genes in the dataset.
Cells were resuspended in PBS and labelled with Cell Proliferation Dye eFluor 450 (CPD) (eBioscience) at a final concentration of 10 μM at 37° C. for 10 min, kept on ice for 5 min, and washed twice with 10 mL of ice-cold RPMI 1640 10% FCS medium.
Primary total human B cells (1×10^6 cells/mL) were prestimulated for ˜24 h with the cocktail containing 10 ng/mL of IL-21 (Miltenyi Biotec), 5 μg/mL of F(ab′)2 anti-BCR Abs (Jackson ImmunoResearch Laboratories Inc.), 50 ng/ml of CD40L (R&D systems), 1 μg/mL of CpG oligonucleotides (ODN 2006, Invivogen), and 50 U/mL of IL-2 (Novartis) as previously described, in the presence of vehicle (DMSO) or 10 μM compound 005. […] The capacity of B cells to suppress effector T cell proliferation was assessed as previously described. […] T cell proliferation was evaluated as the percentage of CPD-low T cells on day 3. […]

[2] = system: BOB1/OCT1-mediated transcription; assay: Luciferase reporter assay (transient transfection, 6xPORE-luc); format: cell-based, human
Protocol: FIGS. 1A-C are a combination of graphs showing that compound 005 inhibits BOB1/OCT1-mediated transcription in vitro. HEC293Ea1 cells, known to express endogenous OCT1, were co-transfected with […] reporter, pEV-OBF1 (BOB1) effector, and pCMV-β-gal calibrator plasmids. Luciferase and β-galactosidase activities were measured 48 hours after transfection. The 100% luciferase activity was set as activity in presence of vehicle (10 μM DMSO). […] All experiments are performed at least in triplicates. Bars indicate the mean±SEM. * P<0.05, ** P<0.01, *** P<0.001, **** P<0.0001.
The HEK293E1a cells were seeded at density 1.2×10^4 per well on 48-well plate in DMEM medium containing 10% fetal calf serum. After 24 hours cells were transfected with plasmid mix (300 ng/well) containing specified amounts of the p6×PORE-luc reporter, pEV-OBF1 and pCG-Oct1 effector, pBluescript II KS+ carrier, and pCMV-βgal (for standardization) as previously described. The transfections were carried out in three biological replicates, using Polyethylenimine (PEI 25K, Polysciences Inc.) at the ratio 2:1 to DNA. After 48 hours, cells were washed with PBS, lysed, and measured for luciferase activity, using the Bright-Glo luciferase assay system (Promega), and for β-galactosidase activity in a standard assay.
BOB1 has been described as a coactivator acting in cooperation with the POU-domain proteins OCT1 and OCT2 bound to distinct DNA-motifs either in monomeric or dimeric configurations. […] As an initial functional assay, we examined the ability of the compounds according to the present invention to affect BOB1-OCT1-PORE-mediated transcriptional activation in transient transfection luciferase assay. To this end, we made use of previously generated 6×PORE-luc and reporter plasmid, in which hexamers of the PORE were cloned upstream of the thymidine kinase (tk) minimal promoter and luciferase gene. […] Furthermore, the addition of a plasmid expressing exogenous OCT1 exerted an inhibitory effect on both basal and BOB1-mediated transcription (data not shown). This observation is likely due to the fact that HEK293 cells, like all other mammalian cell types, express OCT1, and further addition of exogenous OCT1 in these cells shifts the BOB1/OCT1 equilibrium out of optimal range, resulting in squelching effect, and in our experimental setup, in about 3-fold stimulation, as compared to that by endogenous OCT1 alone (FIG. 1A). […] Compound 005 was selected for further detailed investigation.

`Cc1ccc(NC(=O)C2CN(c3nc(NCCCc4ccc(F)cc4)nc(NCCC(=O)O)n3)c3ccccc3O2)cc1Cl` (stereo not drawn) [compound 005, 3-((4-(2-((3-chloro-4-methylphenyl)carbamoyl)-2,3-dihydro-4H-benzo[b][1,4]oxazin-4-yl)-6-((3-(4-fluorophenyl)propyl)amino)-1,3,5-triazin-2-yl)amino)propanoic acid] was tested, and the “suppressive capacity of B expanded” value ([1]; 10 μM during the 24-hours pre-stimulation phase only) was “did not affect”, the “suppression of effector T-cell proliferation” value ([1]; 10 μM, co-cultures of T cells and B expanded) was 79.7±4.9 and the inhibition at 10 µM ([1]; 72 h, 10 μM, T cells only, 3 days) was 53.7 ± 5.8%. The inhibition at 10 µM ([1]; 10 μM, co-cultures of T cells and B resting) was 52.1 ± 7.1%, the “BOB1/OCT1-driven transcription (relative luciferase activity)” value ([2]; 10 μM in the culture medium) was “significantly attenuated” and the “suppression of transcriptional activation” value ([2]; concentration range from 0.5 to 40 μM) was “dose-dependent manner”.
